# Like-named read-outs stand apart in the source and are kept apart here.
# System: patients with advanced solid tumors
# Format: in vivo
# Experimental: This was a Phase 1, open-label, multi-center, non-randomized, dose escalation study evaluating DLTs, tolerability, PK, and preliminary efficacy of bimiralisib in the treatment of patients with advanced solid tumors for which no standard curative or life-prolonging therapy is available. This study was conducted in the US (MD Anderson Cancer Center, Houston; Mayo Clinic Rochester; Roswell Park Comprehensive Cancer Center, Buffalo; University Hospitals of Cleveland), Spain (Vall Hebron University Hospital), Switzerland (Basel University Hospital), and UK (University College London Hospitals NHS Trust and Oxford Universities NHS Trust).
# The primary objective of the study was to determine the MTD of bimiralisib administered according to three different dosing schedules. Bimiralisib was formulated as 20 mg and 80 mg capsules for oral administration. The first dosing schedule to be evaluated was continuous (once daily) dosing over a 21-day cycle. […] Patients enrolled in the continuous schedule and intermittent schedule A received a single lead-in dose, administered on […] prior to the start of the first 21-day treatment cycle, to characterize single-dose pharmacokinetics. Based on the previous first-in-human trial with bimiralisib, together with the expected toxicity profile of PI3K/mTOR inhibitors, the starting dose (dose-level 1) of bimiralisib in Study PQR309-003 was set at 80 mg daily.
# Safety was monitored by physical examination, vital signs, weight, electrocardiogram, ECOG performance status, laboratory evaluations (including glucose monitoring), and patient self-reported mood questionnaires, as well as AEs. All AEs were coded with NCI Common Terminology Criteria for Adverse Events (CTCAE) v4.03 [27]. The MTD was defined as the maximum dose level at which ≤1/6 patients have DLTs. A DLT was defined by the occurrence of grade 3 or 4 AE that is possibly, probably, or definitely related to bimiralisib within the first 21 days of treatment. Bimiralisib treatment was interrupted if patients experienced any DLTs. If the patient derived benefit from the treatment as determined by the investigator, treatment could be resumed at a lower dose in agreement with the study sponsor.
# Patients were discontinued from trial if they had evidence of clinical, symptomatic, or radiographic disease progression or relapse, unacceptable drug related AEs, non-compliance to the protocol, voluntary withdrawal, or pregnancy. Treatment compliance was established with patient diaries and records of medication used and dosages administered.
# Descriptive statistics were used to present the data. Categorical data were summarized in contingency tables presenting frequencies and percentages. Continuous data were summarized using the number of non-missing values (n), mean, standard deviation (SD), median, Q1, Q3, minimum and maximum values, as appropriate. Data were analyzed using SAS. No tests of significance were planned to compare study treatment groups on baseline data. The efficacy and safety analysis set comprised all patients who receive ≥1 dose of bimiralisib.
smiles,measurement,setting,value
"Nc1cc(C(F)(F)F)c(-c2nc(N3CCOCC3)nc(N3CCOCC3)n2)cn1 [bimiralisib, 5-(4,6-Dimorpholino-1,3,5-triazin-2-yl)-4-(trifluoromethyl)pyridin-2-amine]",Any TEAE,Continuous (n = 21),21 (100) n (%)
same,Any drug-related AE,Continuous (n = 21),21 (100) n (%)
same,Any drug-related grade ≥ 3 AE,Continuous (n = 21),11 (52.4) n (%)
same,Any drug-related serious AE,Continuous (n = 21),2 (10) n (%)
same,Any grade ≥ 3 TEAE,Continuous (n = 21),17 (81) n (%)
same,Any serious AE,Continuous (n = 21),9 (43) n (%)
same,Common TEAE: ALT elevation,Continuous (n = 21),1 (4.76) n (%)
same,Common TEAE: Abdominal pain,Continuous (n = 21),1 (4.76) n (%)
same,Common TEAE: Anemia,Continuous (n = 21),0 (0) n (%)
same,Common TEAE: Anxiety,Continuous (n = 21),5 (23.8) n (%)
same,Common TEAE: Ascites,Continuous (n = 21),0 (0) n (%)
same,Common TEAE: Asthenia,Continuous (n = 21),6 (28.6) n (%)
same,Common TEAE: Back pain,Continuous (n = 21),4 (19.1) n (%)
same,Common TEAE: Cachexia,Continuous (n = 21),4 (19.1) n (%)
same,Common TEAE: Cough,Continuous (n = 21),2 (9.5) n (%)
same,Common TEAE: Decreased appetite,Continuous (n = 21),11 (52.4) n (%)
same,Common TEAE: Dehydration,Continuous (n = 21),6 (28.6) n (%)
same,Common TEAE: Depression,Continuous (n = 21),5 (23.8) n (%)
same,Common TEAE: Diarrhea,Continuous (n = 21),10 (47.6) n (%)
same,Common TEAE: Disturbance attention,Continuous (n = 21),11 (52.4) n (%)
same,Common TEAE: Dry Mouth,Continuous (n = 21),10 (47.6) n (%)
same,Common TEAE: Dry skin,Continuous (n = 21),7 (33.3) n (%)
same,Common TEAE: Dysgeusia,Continuous (n = 21),4 (19.1) n (%)
same,Common TEAE: Dyspepsia,Continuous (n = 21),1 (4.76) n (%)
same,Common TEAE: Dyspnea,Continuous (n = 21),4 (19.1) n (%)
same,Common TEAE: Fatigue,Continuous (n = 21),13 (61.9) n (%)
same,Common TEAE: Headache,Continuous (n = 21),0 (0) n (%)
same,Common TEAE: Hyperglycemia,Continuous (n = 21),16 (76.2) n (%)
same,Common TEAE: Hyperinsulinemia,Continuous (n = 21),7 (33.3) n (%)
same,Common TEAE: Hyperkalemia,Continuous (n = 21),0 (0) n (%)
same,Common TEAE: Hyperphosphatasemia,Continuous (n = 21),1 (4.76) n (%)
same,Common TEAE: Hypokalemia,Continuous (n = 21),6 (28.6) n (%)
same,Common TEAE: Irritability,Continuous (n = 21),0 (0) n (%)
same,Common TEAE: Malaise,Continuous (n = 21),4 (19.1) n (%)
same,Common TEAE: Mucosal Inflammation,Continuous (n = 21),0 (0) n (%)
same,Common TEAE: Neck pain,Continuous (n = 21),0 (0) n (%)
same,Common TEAE: Pruritus,Continuous (n = 21),6 (28.6) n (%)
same,Common TEAE: Rash,Continuous (n = 21),4 (19.1) n (%)
same,Common TEAE: Tachycardia,Continuous (n = 21),4 (19.1) n (%)
same,Common TEAE: Upper respiratory tract infection,Continuous (n = 21),1 (4.76) n (%)
same,Common TEAE: Vomiting,Continuous (n = 21),10 (47.6) n (%)
same,Common TEAE: Weight decrease,Continuous (n = 21),11 (52.4) n (%)
same,Grade ≥ 3 TEAE: ALT elevation,Continuous (n = 21),1 (4.8) n (%)
same,Grade ≥ 3 TEAE: Dehydration,Continuous (n = 21),4 (19) n (%)
same,Grade ≥ 3 TEAE: Fatigue,Continuous (n = 21),7 (33.3) n (%)
same,Grade ≥ 3 TEAE: Hyperglycemia,Continuous (n = 21),6 (28.6) n (%)
same,Patients discontinuing study due to AE,Continuous (n = 21),5 (24.0%) n (%)
same,Study discontinuation due to AE: Dehydration,Continuous (n = 21),2 (9.5%) n (%)
same,Study discontinuation due to AE: Ejection Fraction decreased,Continuous (n = 21),1 (4.8%) n (%)
same,Study discontinuation due to AE: Fatigue,Continuous (n = 21),3 (14.3%) n (%)
same,Study discontinuation due to AE: Tumor pain,Continuous (n = 21),1 (4.8%) n (%)
same,Treatment-related death,Continuous (n = 21),0 (0) n (%)
same,Common TEAE: Upper respiratory tract infection,"Intermittent A, n = 25",3 (12) n (%)
same,Study discontinuation due to AE: Urinary Tract Infection,"Intermittent A, n = 25",1 (4.0%) n (%)
same,Treatment-related death,"Intermittent A, n = 25",0 (0) n (%)
same,Common TEAE: Upper respiratory tract infection,"Intermittent B, n = 24",1 (4.2) n (%)
same,Treatment-related death,"Intermittent B, n = 24",0 (0) n (%)
same,Common TEAE: Upper respiratory tract infection,Total n = 70,5 (7.1) n (%)
same,Study discontinuation due to AE: Urinary Tract Infection,Total n = 70,1 (1.4%) n (%)
same,Treatment-related death,Total n = 70,0 (0) n (%)
same,Patients who died during the study,"all patients, 19 patients",27.1%
same,"Grade > 3 TEAE fatigue, frequency",continuous dosing,33.3%
same,"Grade > 3 TEAE hyperglycemia, frequency",continuous dosing,28.6%
same,Patients experiencing Grade > 3 TEAEs,continuous dosing,81%
same,Patients who discontinued due to treatment-related fatigue,continuous dosing,2 patients
same,Patients who discontinued the study due to AEs,continuous dosing,5 patients
same,"Treatment-emergent AE hyperglycemia, frequency",continuous schedule,76.2%
same,Dose reduction due to TEAEs,"continuous schedule, n = 2",10%
same,Dose interruption due to TEAEs,"continuous schedule, n = 11",52%
same,Discontinued study treatment: AEs,"human, in vivo",12.9%
same,"Grade > 3 TEAE hyperglycemia, frequency","human, in vivo",12.5%
same,Patients experiencing one or more TEAEs,"human, in vivo",99%
same,Patients reporting one or more serious adverse events (SAEs),"human, in vivo",40%
same,Patients who discontinued due to treatment-related fatigue,"human, in vivo",1 patients
same,Patients who discontinued the study due to AEs,"human, in vivo",3 patients
same,Patients with TEAEs related to the study drug,"human, in vivo",91%
same,SAEs considered related to study drug,"human, in vivo",6%
same,Study discontinuation due to AE: Dehydration,"human, in vivo",2 (2.8%) n (%)
same,Study discontinuation due to AE: Ejection Fraction decreased,"human, in vivo",1 (1.4%) n (%)
same,Study discontinuation due to AE: Tumor pain,"human, in vivo",1 (1.4%) n (%)
same,"Treatment-emergent AE nausea, frequency","human, in vivo",56–62.5%
same,Patients who discontinued due to AEs considered to be treatment-related,in vivo,five
same,"SAEs considered related to study drug, number",in vivo,two
same,"Grade > 3 TEAE fatigue, frequency",intermittent schedule A,0%
same,"Grade > 3 TEAE hyperglycemia, frequency",intermittent schedule A,12%
same,Patients experiencing Grade > 3 TEAEs,intermittent schedule A,56%
same,Patients who discontinued the study due to AEs,intermittent schedule A,1 patients
same,"SAEs considered related to study drug, number",intermittent schedule A,zero
same,Dose reduction due to TEAEs,"intermittent schedule A, n = 0",0%
same,Dose interruption due to TEAEs,"intermittent schedule A, n = 9",36%
same,"Grade > 3 TEAE fatigue, frequency",intermittent schedule B,8.3%
same,"SAEs considered related to study drug, number",intermittent schedule B (diarrhea and hyperglycemia),two
same,Dose reduction due to TEAEs,"intermittent schedule B, n = 1",4%
same,Dose interruption due to TEAEs,"intermittent schedule B, n = 9",38%
same,Deaths due to disease progression,of 19 deaths during the study,16 patients
same,"Deaths due to other reasons unrelated to bimiralisib (vessel rupture, sepsis, new small cell carcinoma)",of 19 deaths during the study,3 patients

# — paper PMC10969742, “A Phase I Study of the Oral Dual-Acting Pan-PI3K/mTOR Inhibitor Bimiralisib in Patients with Advanced Solid Tumors” (Cancers, 2024)
